Laboratory results taken from patent publication US10758534B2 (Vertex Pharmaceuticals Incorporated, priority 2014, dated 2020).

Molecular target: T1, F508del (Homo sapiens, UniProt P13569, DEL508-508)
T1 construct: expressed in transfected cells
Test: Protocol 2: FRET membrane potential optical assay (VIPR), identification of correction compounds
Assay type: cell-based
Conditions: Table 3; compounds of Table 1 as modulators of CFTR activity; protocol not stated
Method in brief: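 Correction of the F508del trafficking defect is scored as forskolin (10 μM)/genistein (20 μM)-stimulated Cl^− efflux in NIH3T3 mouse fibroblasts after a 16 hr, 37° C. compound exposure. Depolarization was followed optically using voltage-sensing FRET dyes.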

T1 sequence (P13569 with tags, fused parts or gaps DEL508-508): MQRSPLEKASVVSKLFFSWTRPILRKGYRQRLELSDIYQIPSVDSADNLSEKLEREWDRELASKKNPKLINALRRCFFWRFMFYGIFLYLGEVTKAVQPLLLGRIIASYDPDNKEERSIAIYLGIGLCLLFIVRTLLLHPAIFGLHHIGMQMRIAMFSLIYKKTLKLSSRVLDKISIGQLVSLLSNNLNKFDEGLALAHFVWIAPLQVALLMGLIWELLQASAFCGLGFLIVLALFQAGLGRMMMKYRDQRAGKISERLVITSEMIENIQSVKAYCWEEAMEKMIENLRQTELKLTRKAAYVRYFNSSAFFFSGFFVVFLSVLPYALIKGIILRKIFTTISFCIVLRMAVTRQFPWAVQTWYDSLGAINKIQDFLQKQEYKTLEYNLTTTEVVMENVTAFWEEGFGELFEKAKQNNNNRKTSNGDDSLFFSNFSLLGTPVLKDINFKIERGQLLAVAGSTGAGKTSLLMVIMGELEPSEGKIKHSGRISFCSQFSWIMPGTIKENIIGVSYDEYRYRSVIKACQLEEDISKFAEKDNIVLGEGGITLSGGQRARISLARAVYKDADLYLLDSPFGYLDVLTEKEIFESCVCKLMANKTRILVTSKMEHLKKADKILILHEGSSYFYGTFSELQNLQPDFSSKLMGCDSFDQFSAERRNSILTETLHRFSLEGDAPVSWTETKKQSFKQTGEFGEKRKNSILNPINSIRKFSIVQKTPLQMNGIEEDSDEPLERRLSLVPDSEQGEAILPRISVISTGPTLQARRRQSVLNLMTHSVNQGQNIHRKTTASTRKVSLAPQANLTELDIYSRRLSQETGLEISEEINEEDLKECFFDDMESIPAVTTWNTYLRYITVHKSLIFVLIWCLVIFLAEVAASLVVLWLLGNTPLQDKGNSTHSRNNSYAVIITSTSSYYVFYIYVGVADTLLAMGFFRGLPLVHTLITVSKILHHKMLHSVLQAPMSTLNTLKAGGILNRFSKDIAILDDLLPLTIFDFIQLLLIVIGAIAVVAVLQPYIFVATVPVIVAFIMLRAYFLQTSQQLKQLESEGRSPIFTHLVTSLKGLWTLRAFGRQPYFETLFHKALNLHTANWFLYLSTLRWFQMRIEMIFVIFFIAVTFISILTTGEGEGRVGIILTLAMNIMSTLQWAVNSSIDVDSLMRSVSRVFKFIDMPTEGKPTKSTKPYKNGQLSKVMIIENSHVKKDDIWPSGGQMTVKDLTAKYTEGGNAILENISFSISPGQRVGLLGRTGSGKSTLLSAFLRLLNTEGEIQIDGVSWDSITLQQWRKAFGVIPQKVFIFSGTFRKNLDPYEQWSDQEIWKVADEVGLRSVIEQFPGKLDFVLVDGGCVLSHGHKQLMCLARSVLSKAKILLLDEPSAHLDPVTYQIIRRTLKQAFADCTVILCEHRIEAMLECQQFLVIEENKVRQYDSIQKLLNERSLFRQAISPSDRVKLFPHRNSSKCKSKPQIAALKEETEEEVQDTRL

SMILES | EC30
CC(C)COc1cc(F)cc(-c2ccc(C(=O)NS(=O)(=O)c3ccc[nH]c3=O)c(N3CCC(C)CC3)n2)c1 [Compound 422, 6-(3-fluoro-5-isobutoxy-phenyl)-2-(4-methyl-1-piperidyl)-N-[(2-oxo-1H-pyridin-3-yl)sulfonyl]pyridine-3-carboxamide] | +++ (“+++” means <3 uM)
COc1ncccc1S(=O)(=O)NC(=O)c1cc2c(nc1Oc1c(C)cc(C)cc1C)C(C)(C)CCC2 [Compound 423, N-[(2-methoxy-3-pyridyl)sulfonyl]-8,8-dimethyl-2-(2,4,6-trimethylphenoxy)-6,7-dihydro-5H-quinoline-3-carboxamide] | +++ (“+++” means <3 uM)
CC(C)COc1cc(F)cc(-c2ccc(C(=O)NS(=O)(=O)c3cccc(N)n3)c(N3CCCC34CCOC4)n2)c1 (centres unmarked) [Compound 424, N-[(6-amino-2-pyridyl)sulfonyl]-6-(3-fluoro-5-isobutoxy-phenyl)-2-(8-oxa-4-azaspiro[4.4]nonan-4-yl)pyridine-3-carboxamide] | +++ (“+++” means <3 uM)
CC(C)COc1cc(F)cc(-c2ccc(C(=O)NS(=O)(=O)c3cccc(N)n3)c(N3CCCCC3C)n2)c1 (centres unmarked) [Compound 425, N-[(6-amino-2-pyridyl)sulfonyl]-6-(3-fluoro-5-isobutoxy-phenyl)-2-(2-methyl-1-piperidyl)pyridine-3-carboxamide] | +++ (“+++” means <3 uM)
CC(C)COc1cc(F)cc(-c2ccc(C(=O)NS(=O)(=O)c3ccn[nH]3)c(N3CCC(C(F)(F)F)CC3)n2)c1 [Compound 426, 6-(3-fluoro-5-isobutoxy-phenyl)-N-(1H-pyrazol-5-ylsulfonyl)-2-[14-(trifluoromethyl)-1-piperidyl]pyridine-3-carboxamide] | +++ (“+++” means <3 uM)
COc1ncccc1S(=O)(=O)NC(=O)C1c2cccc(-c3ccccc3)c2CN1Cc1c(C)cc(C)cc1C (centres unmarked) [Compound 427, N-[(2-methoxy-3-pyridyl)sulfonyl]-4-phenyl-2-[(2,4,6-trimethylphenyl)methyl]isoindoline-1-carboxamide] | +++ (“+++” means <3 uM)
C[C@@H]1CC[C@H](C)N1c1nc(-c2ccc(OC3CCC3)nc2)ccc1C(=O)NS(=O)(=O)c1cccc(N)n1 [Compound 428, N-[(6-amino-2-pyridyl)sulfonyl]-6-[6-(cyclobutoxy)-3-pyridyl]-2-[(2S,5R)-2,5-dimethylpyrrolidin-1-yl]pyridine-3-carboxamide] | +++ (“+++” means <3 uM)
CCCc1ccccc1-c1cnc(Oc2c(C)cc(C)cc2C)c(C(=O)NS(=O)(=O)c2cccc(N)n2)c1 [Compound 429, N-[(6-amino-2-pyridyl)sulfonyl]-5-(2-propylphenyl)-2-(2,4,6-trimethylphenoxy)pyridine-3-carboxamide] | +++ (“+++” means <3 uM)
C=Cc1ccc(C(=O)NS(=O)(=O)c2cccc(N)n2)c(Oc2c(C)cc(C)cc2C)n1 [Compound 430, N-[(6-amino-2-pyridyl)sulfonyl]-2-(2,4,6-trimethylphenoxy)-6-vinyl-pyridine-3-carboxamide] | +++ (“+++” means <3 uM)
C#CC1CCCN(c2nc(-c3cc(F)cc(OCC(C)C)c3)ccc2C(=O)NS(=O)(=O)c2ccn[nH]2)C1 (centres unmarked) [Compound 431, 2-(3-ethynyl-1-piperidyl)-6-(3-fluoro-5-isobutoxy-phenyl)-N-(1H-pyrazol-5-ylsulfonyl)pyridine-3-carboxamide] | ++ (“++” means between 3 uM and 10 uM)
CC(C)COc1cccc(-c2ccc(C(=O)NS(=O)(=O)c3cccc(N)n3)c(N3[C@H](C)CC[C@@H]3C)n2)n1 [Compound 432, N-[(6-amino-2-pyridyl)sulfonyl]-2-[(2S,5R)-2,5-dimethylpyrrolidin-1-yl]-6-(6-isobutoxy-2-pyridyl)pyridine-3-carboxamide] | +++ (“+++” means <3 uM)
CC(C)COc1cc(F)cc(-c2ccc(C(=O)NS(=O)(=O)c3cccc(N)n3)c(OC3CCOC3)n2)c1 (centres unmarked) [Compound 433, N-[(6-amino-2-pyridyl)sulfonyl]-6-(3-fluoro-5-isobutoxy-phenyl)-2-tetrahydrofuran-3-yloxy-pyridine-3-carboxamide] | +++ (“+++” means <3 uM)
CCOc1ccc(-c2ccc(C(=O)NS(=O)(=O)c3nccnc3N)c(Oc3ccc(C)cc3C)n2)cc1 [Compound 434, N-(3-aminopyrazin-2-yl)sulfonyl-2-(2,4-dimethylphenoxy)-6-(4-ethoxyphenyl)pyridine-3-carboxamide] | +++ (“+++” means <3 uM)
CC(C)Oc1ccc(-c2ccc(C(=O)NS(=O)(=O)c3cccc(N)n3)c(N3CCC(C)C(C)(C)C3)n2)cn1 (centres unmarked) [Compound 435, N-[(6-amino-2-pyridyl)sulfonyl]-6-(6-isopropoxy-3-pyridyl)-2-(3,3,4-trimethyl-1-piperidyl)pyridine-3-carboxamide] | +++ (“+++” means <3 uM)
Cc1cc(C)c(Oc2nc(-c3ccc(OC(C)C)cc3)ccc2C(=O)NS(=O)(=O)c2cccc(N)n2)c(C)c1 [Compound 436, N-[(6-amino-2-pyridyl)sulfonyl]-6-(4-isopropoxyphenyl)-2-(2,4,6-trimethylphenoxy)pyridine-3-carboxamide] | +++ (“+++” means <3 uM)
CC1CN(c2nc(-c3ccc(NC(C)C)nc3)ccc2C(=O)NS(=O)(=O)c2cccc(N)n2)C(C)(C)C1 (centres unmarked) [Compound 437, N-[(6-amino-2-pyridyl)sulfonyl]-6-[16-(isopropylamino)-3-pyridyl]-2-(2,2,4-trimethylpyrrolidin-1-yl)pyridine-3-carboxamide] | +++ (“+++” means <3 uM)
CC(C)COc1cc(F)cc(-c2ccc(C(=O)NS(=O)(=O)c3cccc(N)n3)c(OC3CCC(C)CC3)n2)c1 (centres unmarked) [Compound 438, N-[(6-amino-2-pyridyl)sulfonyl]-6-(3-fluoro-5-isobutoxy-phenyl)-2-(4-methylcyclohexoxy)pyridine-3-carboxamide] | +++ (“+++” means <3 uM)
Cc1cc(C)c(Oc2nc(-c3ccc(F)cc3F)ccc2C(=O)NS(=O)(=O)c2cccc(N)n2)c(C)c1 [Compound 439, N-[(6-amino-2-pyridyl)sulfonyl]-6-(2,4-difluorophenyl)-2-(2,4,6-trimethylphenoxy)pyridine-3-carboxamide] | +++ (“+++” means <3 uM)
CC(C)COc1ccc(-c2ccc(C(=O)NS(=O)(=O)c3cccc(N)n3)c(N3CC(C)CC3(C)C)n2)cc1 (centres unmarked) [Compound 440, N-[(6-amino-2-pyridyl)sulfonyl]-6-(4-isobutoxyphenyl)-2-(2,2,4-trimethylpyrrolidin-1-yl)pyridine-3-carboxamide] | +++ (“+++” means <3 uM)
CC(C)Oc1ccc(-c2ccc(C(=O)NS(=O)(=O)c3cccc(N)n3)c(N3CC[C@@H](C)[C@H]3C)n2)cn1 [Compound 441, N-[(6-amino-2-pyridyl)sulfonyl]-2-[(2R,3R)-2,3-dimethylpyrrolidin-1-yl]-6-(6-isopropoxy-3-pyridyl)pyridine-3-carboxamide] | +++ (“+++” means <3 uM)
CC(C)COc1cc(F)cc(-c2ccc(C(=O)NS(=O)(=O)c3ccn[nH]3)c(N3CCCCC3C)n2)c1 (centres unmarked) [Compound 442, 6-(3-fluoro-5-isobutoxy-phenyl)-2-(2-methyl-1-piperidyl)-N-(1H-pyrazol-5-ylsulfonyl)pyridine-3-carboxamide] | +++ (“+++” means <3 uM)
Cc1cc(C(C)(C)C)cc(C)c1Cn1nc(C(C)(C)C)cc1C(=O)NS(=O)(=O)c1ccccc1 [Compound 443, N-(benzenesulfonyl)-5-tert-butyl-2-[(4-tert-butyl-2,6-dimethyl-phenyl)methyl]pyrazole-3-carboxamide] | + (“+” means greater than 10 uM)
Cc1ccc(-c2nc3c(cc2C(=O)NS(=O)(=O)c2cccc(N)n2)CCCC3(C)C)cc1 [Compound 444, N-[(6-amino-2-pyridyl)sulfonyl]-8,8-dimethyl-2-(p-tolyl)-6,7-dihydro-5H-quinoline-3-carboxamide] | ++ (“++” means between 3 uM and 10 uM)
CCOc1ccc(-c2ccc(C(=O)NS(=O)(=O)c3ccn[nH]3)c(N3CCC(C)CC3)n2)cc1 [Compound 445, 6-(4-ethoxyphenyl)-2-(4-methyl-1-piperidyl)-N-(1H-pyrazol-5-ylsulfonyl)pyridine-3-carboxamide] | + (“+” means greater than 10 uM)
CC(C)Oc1ccc(-c2ccc(C(=O)NS(=O)(=O)c3ccn[nH]3)c(N3C[C@H](C)C[C@H](C)C3)n2)cn1 [Compound 446, 2-[(3R,5S)-3,5-dimethyl-1-piperidyl]-6-(6-isopropoxy-3-pyridyl)-N-(1H-pyrazol-5-ylsulfonyl)pyridine-3-carboxamide] | +++ (“+++” means <3 uM)
CC(C)COc1cc(F)cc(-c2ccc(C(=O)NS(=O)(=O)c3cccc(N)n3)c(N3CCC[C@@H]3c3ccccc3)n2)c1 [Compound 447, N-[(6-amino-2-pyridyl)sulfonyl]-6-(3-fluoro-5-isobutoxy-phenyl)-2-[(2R)-2-phenylpyrrolidin-1-yl]pyridine-3-carboxamide] | +++ (“+++” means <3 uM)
Cc1cc(C)c(CN2C(C(=O)NS(=O)(=O)c3ccc(C)c(N)c3)c3ccccc3C2(C)C)c(C)c1 (centres unmarked) [Compound 448, N-(3-amino-4-methyl-phenyl)sulfonyl-3,3-dimethyl-2-[(2,4,6-trimethylphenyl)methyl]isoindoline-1-carboxamide] | +++ (“+++” means <3 uM)
COc1ncc(-c2ccc(C(=O)NS(=O)(=O)c3cccc(N)n3)c(Oc3c(C)cc(C)cc3C)n2)cn1 [Compound 449, N-[(6-amino-2-pyridyl)sulfonyl]-6-(2-methoxypyrimidin-5-yl)-2-(2,4,6-trimethylphenoxy)pyridine-3-carboxamide] | + (“+” means greater than 10 uM)
Cc1cc(C)c(Oc2nc(-c3cccc(C)c3O)ccc2C(=O)NS(=O)(=O)c2cccc(N)n2)c(C)c1 [Compound 450, N-[(6-amino-2-pyridyl)sulfonyl]-6-(2-hydroxy-3-methyl-phenyl)-2-(2,4,6-trimethylphenoxy)pyridine-3-carboxamide] | +++ (“+++” means <3 uM)
